Laboratory results published in PubChem BioAssay AID248 (DTP/NCI, 2004).
Where “and” joins values, the source holds several entries; their conditions need not be identical. Identical values can stand only once. Inconclusive results and toxic doses are left out. No stated cut-off is given here; in the data, active means T/C of 150% or more; inactive means T/C below 125%.

System: L1210 leukemia ip in BDF1 mice, survival T/C
Test: NCI In Vivo Anticancer Drug Screen. Data for tumor model L1210 Leukemia (intraperitoneal) in B6D2F1 (BDF1) mice
Conditions: endpoint: mean survival time, higher = longer survival
Procedure, shortened: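 Transplanted-tumor mice were given test agent; controls received vehicle only. Survival readings from the two groups were divided (treated over control).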

[1] = dose: 100.0 mg/kg/injection, schedule: Q01DX001 (ip), vehicle: saline
[2] = dose: 200.0 mg/kg/injection, schedule: Q01DX001 (ip), vehicle: saline
[3] = dose: 400.0 mg/kg/injection, schedule: Q01DX001 (ip), vehicle: saline
[4] = dose: 100.0 mg/kg/injection, schedule: Q01DX009 (ip), vehicle: saline
[5] = dose: 200.0 mg/kg/injection, schedule: Q01DX009 (ip), vehicle: saline
[6] = dose: 400.0 mg/kg/injection, schedule: Q01DX009 (ip), vehicle: saline
[7] = dose: 100.0 mg/kg/injection, schedule: Q01DX009 (ip), vehicle: saline with Tween-80
[8] = dose: 200.0 mg/kg/injection, schedule: Q01DX009 (ip), vehicle: saline with Tween-80

Measured: T/C

CC(=O)Nc1ccccc1O
inactive: dose: 50.0 mg/kg/injection, schedule: Q04DX002 (ip), vehicle: Klucel (hydroxypropylcellulose) (HPC) 94 % of control | dose: 75.0 mg/kg/injection, schedule: Q01DX009 (ip), vehicle: saline 95 % of control | dose: 100.0 mg/kg/injection, schedule: Q04DX002 (ip), vehicle: Klucel (hydroxypropylcellulose) (HPC) 94 % of control and 102 % of control | dose: 150.0 mg/kg/injection, schedule: Q01DX009 (ip), vehicle: saline 113 % of control | dose: 200.0 mg/kg/injection, schedule: Q04DX002 (ip), vehicle: Klucel (hydroxypropylcellulose) (HPC) 102 % of control | dose: 300.0 mg/kg/injection, schedule: Q01DX009 (ip), vehicle: saline 89 % of control | dose: 400.0 mg/kg/injection, schedule: Q04DX002 (ip), vehicle: Klucel (hydroxypropylcellulose) (HPC) 113 % of control

CC(C)(C(N)=O)c1ccccc1
inactive: dose: 50.0 mg/kg/injection, schedule: Q01DX001 (ip), vehicle: saline 106 % of control | [1] 103 % of control | [2] 103 % of control | [3] 100 % of control

O=Cc1[nH]c(=S)[nH]c(=O)c1Cc1c(Cl)cccc1Cl
inactive: dose: 100.0 mg/kg/injection, schedule: Q01DX001 (ip), vehicle: saline with Tween-80 101 % of control | dose: 200.0 mg/kg/injection, schedule: Q01DX001 (ip), vehicle: saline with Tween-80 101 % of control | dose: 400.0 mg/kg/injection, schedule: Q01DX001 (ip), vehicle: saline with Tween-80 106 % of control

O=S(O)c1ccccc1
inactive: [4] 96 % of control | [5] 105 % of control | [6] 103 % of control

CCN(CC)c1cc(C)c2cc(Cc3ccccc3)ccc2n1
inactive: dose: 100.0 mg/kg/injection, schedule: Q01DX001 (ip), vehicle: carboxymethylcellulose (CMC) 98 % of control | dose: 200.0 mg/kg/injection, schedule: Q01DX001 (ip), vehicle: carboxymethylcellulose (CMC) 96 % of control | dose: 400.0 mg/kg/injection, schedule: Q01DX001 (ip), vehicle: carboxymethylcellulose (CMC) 101 % of control

O=C(Nc1cccc2ccccc12)OCCCBr
inactive: [7] 90 % of control | [8] 90 % of control

O=C(COc1cc(Cl)cc(Cl)c1)NCc1ccc(Cl)cc1
inactive: dose: 100.0 mg/kg/injection, schedule: Q01DX009 (ip), vehicle: Klucel (hydroxypropylcellulose) (HPC) 91 % of control | dose: 100.0 mg/kg/injection, schedule: Q04DX003 (ip), vehicle: Klucel (hydroxypropylcellulose) (HPC) 95 % of control | dose: 200.0 mg/kg/injection, schedule: Q01DX009 (ip), vehicle: Klucel (hydroxypropylcellulose) (HPC) 88 % of control | dose: 200.0 mg/kg/injection, schedule: Q04DX003 (ip), vehicle: Klucel (hydroxypropylcellulose) (HPC) 95 % of control | dose: 400.0 mg/kg/injection, schedule: Q01DX009 (ip), vehicle: Klucel (hydroxypropylcellulose) (HPC) 95 % of control | dose: 400.0 mg/kg/injection, schedule: Q04DX003 (ip), vehicle: Klucel (hydroxypropylcellulose) (HPC) 88 % of control

O=C(/C=C/c1cccnc1)/C=C/c1cccnc1
inactive: dose: 80.0 mg/kg/injection, schedule: Q01DX009 (ip), vehicle: Klucel (hydroxypropylcellulose) (HPC) 108 % of control

O=C(O)CCC(=O)O
inactive: dose: 10.0 mg/kg/injection, schedule: Q01DX009 (ip), vehicle: saline 103 % of control and 101 % of control | dose: 20.0 mg/kg/injection, schedule: Q01DX009 (ip), vehicle: saline 100 % of control and 103 % of control | dose: 31.25 mg/kg/injection, schedule: Q01DX015 (ip), vehicle: water 96 % of control | dose: 40.0 mg/kg/injection, schedule: Q01DX009 (ip), vehicle: saline 97 % of control | dose: 62.5 mg/kg/injection, schedule: Q01DX015 (ip), vehicle: water 89 % of control | dose: 62.5 mg/kg/injection, schedule: Q01DX Z (ip), vehicle: water 95 % of control and 91 % of control | dose: 80.0 mg/kg/injection, schedule: Q01DX009 (ip), vehicle: saline 97 % of control and 99 % of control | [1] 96 % of control | [4] 97 % of control and 102 % of control and 92 % of control | dose: 125.0 mg/kg/injection, schedule: Q01DX015 (ip), vehicle: water 96 % of control and 87 % of control | dose: 125.0 mg/kg/injection, schedule: Q01DX Z (ip), vehicle: water 91 % of control and 88 % of control | dose: 160.0 mg/kg/injection, schedule: Q01DX009 (ip), vehicle: saline 93 % of control and 99 % of control | [2] 102 % of control | [5] 94 % of control and 97 % of control and 105 % of control | dose: 250.0 mg/kg/injection, schedule: Q01DX001 (ip), vehicle: water 100 % of control and 91 % of control | dose: 250.0 mg/kg/injection, schedule: Q01DX015 (ip), vehicle: water 93 % of control | dose: 250.0 mg/kg/injection, schedule: Q01DX Z (ip), vehicle: water 94 % of control and 100 % of control | [3] 107 % of control | [6] 105 % of control | dose: 500.0 mg/kg/injection, schedule: Q01DX001 (ip), vehicle: water 100 % of control | dose: 500.0 mg/kg/injection, schedule: Q01DX Z (ip), vehicle: water 94 % of control and 101 % of control

O=C/C=C/Nc1ccccc1
inactive: dose: 100.0 mg/kg/injection, schedule: Q04DX003 (ip), vehicle: saline 105 % of control | dose: 200.0 mg/kg/injection, schedule: Q04DX003 (ip), vehicle: saline 108 % of control | dose: 400.0 mg/kg/injection, schedule: Q04DX003 (ip), vehicle: saline 100 % of control

CCOC(=O)C1OC12c1cccc3cccc(c13)C21OC1C(=O)OCC (centres undefined)
inactive: [7] 92 % of control | [8] 90 % of control | dose: 400.0 mg/kg/injection, schedule: Q01DX009 (ip), vehicle: saline with Tween-80 98 % of control

CC(=O)Oc1c2ccccc2c(OC(C)=O)c2cc(/C=C/C(=O)O)ccc12
inactive: dose: 100.0 mg/kg/injection, schedule: Q04DX003 (ip), vehicle: saline with Tween-80 95 % of control | dose: 200.0 mg/kg/injection, schedule: Q04DX003 (ip), vehicle: saline with Tween-80 90 % of control | dose: 400.0 mg/kg/injection, schedule: Q04DX003 (ip), vehicle: saline with Tween-80 88 % of control

Cc1cc(Cl)cc(C)c1O
inactive: dose: 75.0 mg/kg/injection, schedule: Q04DX003 (ip), vehicle: saline 114 % of control | dose: 150.0 mg/kg/injection, schedule: Q04DX003 (ip), vehicle: saline 100 % of control | dose: 300.0 mg/kg/injection, schedule: Q04DX003 (ip), vehicle: saline 112 % of control

Cc1ccc(N2CCN(C(C)(C)C#N)CC2)cc1
inactive: [1] 102 % of control | [2] 98 % of control
